Data: patent US20260158017A1, “KIF18A INHIBITOR” (WIGEN BIOMEDICINE TECHNOLOGY (SHANGHAI) CO., LTD., priority 2021, published 2026)

These compounds were tested against T1, Recombinant human KIF18A (1-467His-tagged) protein (Homo sapiens, UniProt Q8NI77) (assay: KIF18A enzyme assay (microtubule-stimulated ATPase activity, ADP-Glo)). Settings: 30 nM KIF18A, 75 μM ATP, 30 μg/mL pig microtubules; read-out: Inhibitory activity against KIF18A IC50.
T1 construct: Recombinant human KIF18A (1-467His-tagged) protein; His; made in house
T1 sequence (Q8NI77 1-467): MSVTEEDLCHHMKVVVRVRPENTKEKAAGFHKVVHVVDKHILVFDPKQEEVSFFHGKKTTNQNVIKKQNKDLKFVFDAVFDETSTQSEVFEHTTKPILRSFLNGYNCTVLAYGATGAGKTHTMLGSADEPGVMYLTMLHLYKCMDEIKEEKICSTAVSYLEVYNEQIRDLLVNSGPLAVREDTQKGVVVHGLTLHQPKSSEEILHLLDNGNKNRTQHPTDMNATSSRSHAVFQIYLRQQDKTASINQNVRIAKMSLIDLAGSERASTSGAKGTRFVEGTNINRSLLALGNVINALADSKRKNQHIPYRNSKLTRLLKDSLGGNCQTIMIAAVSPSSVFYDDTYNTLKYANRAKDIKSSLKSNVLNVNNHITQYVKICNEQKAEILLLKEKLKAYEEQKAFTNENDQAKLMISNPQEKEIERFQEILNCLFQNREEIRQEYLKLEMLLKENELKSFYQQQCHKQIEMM
T1 sequence (P02550 whole entry partner): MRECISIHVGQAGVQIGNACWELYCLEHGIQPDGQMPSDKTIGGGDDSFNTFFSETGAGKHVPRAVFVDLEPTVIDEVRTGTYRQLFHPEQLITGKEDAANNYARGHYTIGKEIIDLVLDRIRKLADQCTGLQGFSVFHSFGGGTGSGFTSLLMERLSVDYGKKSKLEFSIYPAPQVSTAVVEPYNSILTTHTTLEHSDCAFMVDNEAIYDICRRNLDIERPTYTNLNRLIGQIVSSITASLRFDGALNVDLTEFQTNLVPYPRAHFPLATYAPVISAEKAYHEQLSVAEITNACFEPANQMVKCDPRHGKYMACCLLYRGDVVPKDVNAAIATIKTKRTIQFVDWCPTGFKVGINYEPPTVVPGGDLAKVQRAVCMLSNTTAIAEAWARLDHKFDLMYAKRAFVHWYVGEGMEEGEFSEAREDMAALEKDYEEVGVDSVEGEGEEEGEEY
T1 sequence (P02554 whole entry partner): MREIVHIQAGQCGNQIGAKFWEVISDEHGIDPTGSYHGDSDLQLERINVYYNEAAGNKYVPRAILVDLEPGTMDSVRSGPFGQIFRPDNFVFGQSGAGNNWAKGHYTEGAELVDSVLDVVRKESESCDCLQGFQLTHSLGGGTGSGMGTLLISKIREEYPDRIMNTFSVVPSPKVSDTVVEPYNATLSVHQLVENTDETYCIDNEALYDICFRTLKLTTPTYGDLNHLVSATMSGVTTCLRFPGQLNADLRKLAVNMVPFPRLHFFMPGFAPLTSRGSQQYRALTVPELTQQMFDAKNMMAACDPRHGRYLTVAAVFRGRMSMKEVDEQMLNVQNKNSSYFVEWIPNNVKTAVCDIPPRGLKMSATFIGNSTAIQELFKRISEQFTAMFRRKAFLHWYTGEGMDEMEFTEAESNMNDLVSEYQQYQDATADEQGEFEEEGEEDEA
Format: biochemical
Summary of the method: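 Buffer 15 mM Tris pH 7.5, 10 mM MgCl2, 0.01% Pluronic F-68, 1 μM paclitaxel, 30 μg/mL pig microtubules; reactions at room temperature. IC50 from inhibition relative to DMSO.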

Structure (SMILES)	IC50
CC1(F)CCN(c2cc(NC(=O)c3ccc(NS(=O)(=O)CCO)cc3N3CCC4(CC3)CC4)ccc2[N+](=O)[O-])C1 (centres unmarked) [Compound 8]	≤ 100 nM
CSc1ccc(NC(=O)c2cnc(NS(=O)(=O)CCO)cc2N2CCC3(CC2)CC3)cc1OCCC(F)(F)F [Compound 613]	≤ 100 nM
O=C(Nc1ccc([N+](=O)[O-])c(N2CC3CC3C2)c1)c1cnc(NS(=O)(=O)CCO)cc1N1CCC2(CC1)CC2 (centres unmarked) [Compound 106]	≤ 100 nM
O=C(Nc1ccc([N+](=O)[O-])c(N2CCC3(CC3)C2)n1)c1ccc(S(=O)(=O)NCCO)cc1N1CCC2(CC1)CC2 [Compound 86]	≤ 100 nM
O=C(Nc1ccc(NS(=O)(=O)CCO)cc1N1CCC2(CC1)CC2)c1ccc([N+](=O)[O-])c(N2CCC3(CC3)C2)c1 [Compound 38]	≤ 100 nM
O=C(Nc1ccc(NS(=O)(=O)CCO)cc1N1CCC2(CC1)CC2)c1ccc([N+](=O)[O-])c(N2CC3CC3C2)c1 (centres unmarked) [Compound 42]	≤ 100 nM
O=C(Nc1ccc([N+](=O)[O-])c(OCCC(F)(F)F)c1)c1ccc(NS(=O)(=O)CCO)cc1N1CCC2(CC1)CC2 [Compound 5]	≤ 100 nM
O=C(Nc1ccc([N+](=O)[O-])c(N2CC3CC3C2)c1)c1ccc(S(=O)(=O)NCCO)cc1N1CCC2(CC1)CC2 (centres unmarked) [Compound 26]	≤ 100 nM
CSc1ccc(NC(=O)c2ccc(NS(=O)(=O)CCO)cc2N2CCC3(CC2)CC3)nc1N1CCC2(CC2)C1 [Compound 598]	≤ 100 nM
CSc1ccc(NC(=O)c2ccc(NS(=O)(=O)CCO)cc2N2CCC3(CC2)CC3)cc1NC(C)(C)CO [Compound 587]	≤ 100 nM
CC(C)(CO)Nc1cc(NC(=O)c2ccc(S(=O)(=O)NCCO)cc2N2CCC3(CC2)CC3)ccc1OCF [Compound 411]	≤ 100 nM
O=C(Nc1ccc(S(=O)(=O)NCCO)cc1N1CCC2(CC1)CC2)c1ccc([N+](=O)[O-])c(N2CCC3(CC3)C2)c1 [Compound 54]	100 to 500 nM
C[C@H](CO)NS(=O)(=O)c1cc(N2CCC3(CC2)CC3)c(NC(=O)c2ccc([N+](=O)[O-])c(N3CCC(F)(F)CC3)c2)cn1 [Compound 222]	100 to 500 nM
COc1ccc(NC(=O)c2ccc(S(=O)(=O)NCCO)cc2N2CCC3(CC2)CC3)nc1N1CC2CC2C1 (centres unmarked) [Compound 282]	≤ 100 nM
COc1ccc(NC(=O)c2cnc(NS(=O)(=O)CCO)cc2N2CCC3(CC2)CC3)nc1N1CCC(F)CC1 [Compound 297]	≤ 100 nM
O=C(Nc1cnc(S(=O)(=O)NCCO)cc1N1CCC2(CC1)CC2)c1ccc([N+](=O)[O-])c(OCCC(F)(F)F)n1 [Compound 245]	100 to 500 nM
O=C(Nc1ccc([N+](=O)[O-])c(N2CC3CC3C2)n1)c1ccc(NS(=O)(=O)CCO)cc1N1CCC2(CC1)CC2 (centres unmarked) [Compound 74]	≤ 100 nM
C[C@H](CO)NS(=O)(=O)c1cc(N2CCC3(CC2)CC3)c(C(=O)Nc2ccc([N+](=O)[O-])c(N3CCC(F)(F)CC3)c2)cn1 [Compound 126]	≤ 100 nM
O=C(Nc1cnc(S(=O)(=O)NCCO)cc1N1CCC2(CC1)CC2)c1ccc([N+](=O)[O-])c(N2CC(F)(F)C2)c1 [Compound 212]	100 to 500 nM
CSc1ccc(NC(=O)c2ccc(NS(=O)(=O)CCO)cc2N2CCC3(CC2)CC3)cc1OCCC(F)(F)F [Compound 581]	≤ 100 nM
O=C(Nc1cnc(NS(=O)(=O)CCO)cc1N1CCC2(CC1)CC2)c1ccc([N+](=O)[O-])c(N2CCC3(CC3)C2)c1 [Compound 198]	≤ 100 nM
O=C(Nc1ccc([N+](=O)[O-])c(N2CCOCC2)n1)c1ccc(NS(=O)(=O)CCO)cc1N1CCC2(CC1)CC2 [Compound 76]	≤ 100 nM
C[C@H](CO)S(=O)(=O)Nc1cc(N2CCC3(CC2)CC3)c(C(=O)Nc2ccc([N+](=O)[O-])c(N3CCC(F)(F)CC3)c2)cn1 [Compound 110]	≤ 100 nM
CSc1ccc(NC(=O)c2cnc(NS(=O)(=O)CCO)cc2N2CCC3(CC2)CC3)cc1N1CCC2(CC2)C1 [Compound 614]	≤ 100 nM
O=C(Nc1ccc(OCF)c(OCCC(F)(F)F)c1)c1ccc(S(=O)(=O)NCCO)cc1N1CCC2(CC1)CC2 [Compound 405]	≤ 100 nM
CC1(F)CCN(c2nc(NC(=O)c3ccc(S(=O)(=O)NCCO)cc3N3CCC4(CC3)CC4)ccc2[N+](=O)[O-])C1 (centres unmarked) [Compound 88]	≤ 100 nM

The next lines start with the values.

IC50	Structure (SMILES)
100 to 500 nM	C[C@H]1CN(c2cc(C(=O)Nc3ccc(S(=O)(=O)NCCO)cc3N3CCC4(CC3)CC4)ccc2OCF)CCO1 [Compound 531]
≤ 100 nM	C[C@H](CO)NS(=O)(=O)c1ccc(C(=O)Nc2ccc(OCF)c(N3CCC(F)(F)CC3)n2)c(N2CCC3(CC2)CC3)c1 [Compound 446]
100 to 500 nM	C[C@@H](CO)NS(=O)(=O)c1ccc(NC(=O)c2ccc([N+](=O)[O-])c(N3CCC(F)(F)CC3)n2)c(N2CCC3(CC2)CC3)c1 [Compound 189]
≤ 100 nM	C[C@@H]1CN(c2nc(C(=O)Nc3ccc(NS(=O)(=O)[C@@H](C)CO)cc3N3CCC4(CC3)CC4)ccc2OCF)CCO1 [Compound 559]
≤ 100 nM	COc1ccc(C(=O)Nc2ccc(S(=O)(=O)NCCO)cc2N2CCC3(CC2)CC3)nc1N1CCC2(CC2)C1 [Compound 342]
≤ 100 nM	O=C(Nc1ccc(NS(=O)(=O)CCO)cc1N1CCC2(CC1)CC2)c1ccc([N+](=O)[O-])c(N2CC3CC3C2)n1 (centres unmarked) [Compound 170]
≤ 100 nM	CC1(F)CCN(c2cc(NC(=O)c3cnc(S(=O)(=O)NCCO)cc3N3CCC4(CC3)CC4)ccc2OCF)C1 (centres unmarked) [Compound 472]
100 to 500 nM	C[C@@H]1CN(c2cc(C(=O)Nc3ccc(S(=O)(=O)NCCO)cc3N3CCC4(CC3)CC4)ccc2[N+](=O)[O-])CCO1 [Compound 50]
≤ 100 nM	CSc1ccc(NC(=O)c2cnc(NS(=O)(=O)[C@@H](C)CO)cc2N2CCC3(CC2)CC3)nc1N1CCO[C@H](C)C1 [Compound 639]
≤ 100 nM	C[C@@H](CO)S(=O)(=O)Nc1ccc(NC(=O)c2ccc(OCF)c(N3CCC(F)(F)CC3)n2)c(N2CCC3(CC2)CC3)c1 [Compound 557]
100 to 500 nM	C[C@@H](CO)S(=O)(=O)Nc1ccc(NC(=O)c2ccc([N+](=O)[O-])c(N3CCC(F)(F)CC3)c2)c(N2CCC3(CC2)CC3)c1 [Compound 45]
100 to 500 nM	O=C(Nc1ccc(S(=O)(=O)NCCO)cc1N1CCC2(CC1)CC2)c1ccc(OCF)c(N2CCC3(CC3)C2)c1 [Compound 534]
≤ 100 nM	O=C(Nc1ccc(OCF)c(N2CCOCC2)c1)c1ccc(S(=O)(=O)NCCO)cc1N1CCC2(CC1)CC2 [Compound 412]
100 to 500 nM	O=C(Nc1ccc(S(=O)(=O)NCCO)cc1N1CCC2(CC1)CC2)c1ccc(OCF)c(N2CC3CC3C2)c1 (centres unmarked) [Compound 538]
≤ 100 nM	COc1ccc(C(=O)Nc2ccc(S(=O)(=O)NCCO)cc2N2CCC3(CC2)CC3)nc1OCCC(F)(F)F [Compound 341]
≤ 100 nM	CSc1ccc(NC(=O)c2ccc(NS(=O)(=O)[C@@H](C)CO)cc2N2CCC3(CC2)CC3)cc1N1CCC(F)(F)CC1 [Compound 589]
≤ 100 nM	COc1ccc(C(=O)Nc2ccc(NS(=O)(=O)CCO)cc2N2CCC3(CC2)CC3)nc1N1CCC(C)(F)C1 (centres unmarked) [Compound 328]
100 to 500 nM	C[C@@H]1CN(c2cc(C(=O)Nc3ccc(S(=O)(=O)NCCO)cc3N3CCC4(CC3)CC4)ccc2OCF)CCO1 [Compound 530]

IC50	Structure (SMILES)
≤ 100 nM	COc1ccc(C(=O)Nc2ccc(NS(=O)(=O)[C@H](C)CO)cc2N2CCC3(CC2)CC3)nc1N1CCO[C@H](C)C1 [Compound 336]
≤ 100 nM	CSc1ccc(NC(=O)c2cnc(NS(=O)(=O)CCO)cc2N2CCC3(CC2)CC3)nc1N1CCO[C@@H](C)C1 [Compound 627]
≤ 100 nM	C[C@H](CO)NS(=O)(=O)c1cc(N2CCC3(CC2)CC3)c(C(=O)Nc2ccc(OCF)c(N3CCO[C@H](C)C3)n2)cn1 [Compound 512]
≤ 100 nM	O=C(Nc1ccc(OCF)c(N2CCOCC2)c1)c1ccc(NS(=O)(=O)CCO)cc1N1CCC2(CC1)CC2 [Compound 396]
≤ 100 nM	CC(C)(CO)Nc1nc(C(=O)Nc2ccc(NS(=O)(=O)CCO)cc2N2CCC3(CC2)CC3)ccc1[N+](=O)[O-] [Compound 171]
≤ 100 nM	C[C@H](CO)NS(=O)(=O)c1ccc(C(=O)Nc2ccc(OCF)c(N3CCO[C@H](C)C3)c2)c(N2CCC3(CC2)CC3)c1 [Compound 416]
≤ 100 nM	COc1ccc(C(=O)Nc2ccc(NS(=O)(=O)CCO)cc2N2CCC3(CC2)CC3)nc1N1CCC2(CC2)C1 [Compound 326]
≤ 100 nM	COc1ccc(NC(=O)c2cnc(NS(=O)(=O)[C@@H](C)CO)cc2N2CCC3(CC2)CC3)nc1N1CCO[C@H](C)C1 [Compound 303]
100 to 500 nM	O=C(Nc1ccc(S(=O)(=O)NCCO)cc1N1CCC2(CC1)CC2)c1ccc(OCF)c(OC2CCC2)n1 [Compound 567]
≤ 100 nM	C[C@@H]1CN(c2nc(C(=O)Nc3ccc(NS(=O)(=O)[C@@H](C)CO)cc3N3CCC4(CC3)CC4)ccc2[N+](=O)[O-])CCO1 [Compound 175]
100 to 500 nM	CC1(F)CCN(c2nc(C(=O)Nc3ccc(S(=O)(=O)NCCO)cc3N3CCC4(CC3)CC4)ccc2OCF)C1 (centres unmarked) [Compound 568]
≤ 100 nM	O=C(Nc1ccc(OCF)c(N2CC3CC3C2)n1)c1ccc(NS(=O)(=O)CCO)cc1N1CCC2(CC1)CC2 (centres unmarked) [Compound 426]
≤ 100 nM	COc1ccc(C(=O)Nc2ccc(NS(=O)(=O)CCO)cc2N2CCC3(CC2)CC3)nc1OCCC(F)(F)F [Compound 325]
≤ 100 nM	COc1ccc(C(=O)Nc2ccc(NS(=O)(=O)CCO)cc2N2CCC3(CC2)CC3)nc1N1CC2CC2C1 (centres unmarked) [Compound 330]
≤ 100 nM	COc1ccc(C(=O)Nc2ccc(S(=O)(=O)N[C@@H](C)CO)cc2N2CCC3(CC2)CC3)nc1N1CCO[C@H](C)C1 [Compound 351]
≤ 100 nM	O=C(Nc1ccc(NS(=O)(=O)CCO)cc1N1CCC2(CC1)CC2)c1ccc(OCF)c(N2CCC3(CC3)C2)c1 [Compound 518]
≤ 100 nM	CC(C)(CO)Nc1nc(C(=O)Nc2ccc(NS(=O)(=O)CCO)cc2N2CCC3(CC2)CC3)ccc1OCF [Compound 555]
≤ 100 nM	CSc1ccc(NC(=O)c2cnc(NS(=O)(=O)[C@H](C)CO)cc2N2CCC3(CC2)CC3)cc1N1CCO[C@H](C)C1 [Compound 624]
